In publication PMC3434256 (Journal of the American Chemical Society, 2012):
“And” between values parts separate entries of the source, which are not always exact repeats. Equal values may be shown once. Read-outs that look alike come from different tables or passages of the source. Marks after values point to notes of the source that are not given here.

Legend:
ScOMPDC [1] = conditions: cited from earlier work; for Kd: read-out: (Kd)obsd, observed affinity of ScOMPDC, pH 7.2, H2O
[2] = target: T1, yeast orotidine 5′-monophosphate decarboxylase (ScOMPDC) (Saccharomyces cerevisiae, UniProt P03962, A160S/C155S/N267D/S2H); conditions: for kex, turnover number for deuterium exchange into enzyme-bound substrate / (kex)max, intrinsic first-order rate constant (turnover number) for deuterium exchange into saturating substrate bound to the deprotonated enzyme / kex/Kd, second-order rate constant for enzyme-catalyzed deuterium exchange: I = 0.1 (NaCl); for free energy of binding to form the Michaelis complex: deprotonated enzyme; for (Keq)enz, equilibrium constant for proton transfer from C-6 of bound nucleotide to ScOMPDC: eq 11, krot = 10^7 s^−1; for Kd′/Kd, ratio of dissociation constants from protonated and deprotonated enzyme: from pKE - pKES; for stabilization of enzyme-bound vinyl carbanion relative to bound nucleotide: lower limit; for (kex)max, intrinsic first-order rate constant (turnover number) for deuterium exchange into saturating substrate bound to the deprotonated enzyme: pD-rate profile of kex fit to eq 7, D2O, 25 °C; for kex/Kd, second-order rate constant for enzyme-catalyzed deuterium exchange: ratio of kex and Kd
T1 sequence (P03962 whole entry S2H/C155S/A160S/N267D): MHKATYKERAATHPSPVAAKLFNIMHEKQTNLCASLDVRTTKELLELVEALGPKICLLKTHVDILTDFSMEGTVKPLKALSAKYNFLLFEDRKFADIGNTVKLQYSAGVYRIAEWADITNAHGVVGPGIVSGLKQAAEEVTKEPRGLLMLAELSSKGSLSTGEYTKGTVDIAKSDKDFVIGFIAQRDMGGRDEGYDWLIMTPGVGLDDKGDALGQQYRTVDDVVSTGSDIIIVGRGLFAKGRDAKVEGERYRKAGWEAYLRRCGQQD

[3] = Nonenzymatic C-6 deuterium exchange catalyzed by deuterioxide ion in D2O; conditions: for kDO, second-order rate constant for deuterioxide-ion-catalyzed deuterium exchange at C-6: D2O; for kDO, second-order rate constant for deuterioxide-ion-catalyzed deuterium exchange at C-6 / kHO, second-order rate constant for proton transfer from C-6 to hydroxide ion: 25 °C; for kHO, second-order rate constant for proton transfer from C-6 to hydroxide ion: H2O, calculated from kDO using kDO/kHO = 2.4; for (Keq)aq, equilibrium constant for proton transfer from C-6 to a primary amine base of pKRNH3 = 7 in water: eq 12, pKCH of model nucleosides uridine and 5-fluorouridine
[4] = cited from earlier work
[5] = titration, H2O, 25 °C, I = 0.1; cited from earlier work
[6] = pKa of the phosphoryl group by titration; assay type: physicochemical; conditions: D2O, I = 0.1, estimated from UMP pKa in H2O plus 0.5 unit
[7] = pKa of the N-3 hydron, spectrophotometric; assay type: physicochemical
[8] = target: T1, yeast orotidine 5′-monophosphate decarboxylase (ScOMPDC); assay: biochemical
[9] = aqueous solution; cited from earlier work
ScOMPDC [10] = conditions: pH 7.1, 25 °C; cited from earlier work

SMILES: O=c1cnn([C@@H]2O[C@H](COP(=O)(O)O)[C@@H](O)[C@H]2O)c(=O)[nH]1 [6-aza-UMP, 6-azauridine 5′-monophosphate]
- Ki (ScOMPDC [1]; pH 7.2, competitive inhibitor): 0.093 µM
- deuterium exchange into UMP (2 mM) in the presence of inhibitor ([2]; 2 mM 6-aza-UMP, 260 μM ScOMPDC, 2 days, pD 9.3, 25 °C): no detectable deuterium exchange

SMILES: O=c1[nH]c(=O)n(C2OC(CO)C(O)C2O)cc1F (stereo not drawn) [5-Fluorouridine N-3 Anion, 5-fluorouridine N-3 anion]
- kDO, second-order rate constant for deuterioxide-ion-catalyzed deuterium exchange at C-6 [3]: 6.8e-05 M⁻¹ s⁻¹
- kHO, second-order rate constant for proton transfer from C-6 to hydroxide ion [3]: 2.8e-05 M⁻¹ s⁻¹

SMILES: Cn1cc(F)c(=O)n(C)c1=O
- kDO, second-order rate constant for deuterioxide-ion-catalyzed deuterium exchange at C-6 [3]: 0.043 M⁻¹ s⁻¹
- kHO, second-order rate constant for proton transfer from C-6 to hydroxide ion [3]: 0.018 M⁻¹ s⁻¹

SMILES: O=c1ccn([C@@H]2O[C@H](COP(=O)(O)O)[C@@H](O)[C@H]2O)c(=O)[nH]1 [UMP, uridine 5′-monophosphate]
- pKa of the N-3 proton (pKNH) ([4]; H2O, 25 °C, I = 0.1): 9.7
- pKNH ([4]; ref Jencks, Regenstein, Handbook of Biochemistry and Molecular Biology 1976): 9.5
- decrease in pKa of the side chain of Lys-93 upon binding (pKE - pKES) [2]: 0.5 unit
- kex, turnover number for deuterium exchange into enzyme-bound substrate ([2]; D2O, pD 7.03, 25 °C, average of kobsd[UMP]o/[E]): 1.2e-06 s⁻¹
- kex, turnover number for deuterium exchange into enzyme-bound substrate ([2]; D2O, pD 7.58, 25 °C, average of kobsd[UMP]o/[E]): 3.19e-06 s⁻¹
- kex, turnover number for deuterium exchange into enzyme-bound substrate ([2]; D2O, pD 8.13, 25 °C, average of kobsd[UMP]o/[E]): 7.53e-06 s⁻¹
- kex, turnover number for deuterium exchange into enzyme-bound substrate ([2]; D2O, pD 9.34, 25 °C, average of kobsd[UMP]o/[E]): 1.15e-05 s⁻¹
- free energy of binding to form the Michaelis complex [2]: 6.4 kcal/mol
- (Keq)enz, equilibrium constant for proton transfer from C-6 of bound nucleotide to ScOMPDC [2]: 1.2 × 10^−12
- Kd′/Kd, ratio of dissociation constants from protonated and deprotonated enzyme [2]: 3
- stabilization of enzyme-bound vinyl carbanion relative to bound nucleotide [2]: at least 13 kcal/mol
- hydrolysis of the 5′-phosphoryl group during exchange reaction ([2]; pD 7.0): up to 19%
- hydrolysis of the glycosidic bond to give uracil during exchange reaction ([2]; pD 7.0): up to 24%
- hydrolysis of the 5′-phosphoryl group to give uridine during exchange reaction ([2]; pD 7.6 – 9.3): up to 4%
- (kex)max, intrinsic first-order rate constant (turnover number) for deuterium exchange into saturating substrate bound to the deprotonated enzyme [2]: 1.2e-05 s⁻¹
- pKa of the phosphoryl group [5]: 6.26 and 6.3
- (Keq)aq, equilibrium constant for proton transfer from C-6 to a primary amine base of pKRNH3 = 7 in water [3]: 2 × 10^−22

SMILES: O=c1ccn([C@H]2C[C@H](O)[C@@H](COP(=O)(O)O)O2)c(=O)[nH]1 [2′-deoxyuridine 5′-monophosphate]
- Kd (ScOMPDC [1]): 170 µM

SMILES: O=C[C@H](O)[C@H](O)[C@H](O)COP(=O)(O)O [ribose 5′-monophosphate]
- pKa of the phosphoryl group [5]: 6.25

SMILES: O=c1[nH]c(=O)n([C@H]2C[C@H](O)[C@@H](CO)O2)cc1F [5-fluoro-2′-deoxyuridine]
- pKa of the N-3 proton ([4]; H2O, 25 °C, I = 0.1): 7.67

SMILES: O=c1[nH]c(=O)n([C@H]2C[C@H](O)[C@@H](COP(=O)(O)O)O2)cc1F [5-fluoro-2′-deoxyuridine 5′-monophosphate]
- Kd (ScOMPDC [1]): 250 µM
- pKa of the N-3 proton (pKNH) ([4]; H2O, 25 °C, I = 0.1): 7.90

SMILES: O=c1ccn([C@@H]2O[C@H](CO)[C@@H](O)[C@H]2O)c(=O)[nH]1 [Uridine, uridine]
- kHO, second-order rate constant for proton transfer from C-6 to hydroxide ion [3]: 0.00016 M⁻¹ s⁻¹

SMILES: O=c1[nH]c(=O)n([C@@H]2O[C@H](COP(=O)(O)O)[C@@H](O)[C@H]2O)cc1F [F-UMP, 5-fluorouridine 5′-monophosphate]
- pKSD2, ionization of the phosphoryl group [6]: 6.8
- pKa ([7]; buffered D2O): 8.37 ± 0.05
- pKa ([7]; buffered H2O): 7.84 ± 0.03
- decrease in pKa of the side chain of Lys-93 upon binding (pKE - pKES) [2]: 1.4 unit
- transition state stabilization for deuterium exchange [2]: 14 kcal/mol
- kex, turnover number for deuterium exchange into enzyme-bound substrate ([2]; D2O, pD 6.45, 25 °C, fit to eq 5): 0.00818 s⁻¹
- kex/Kd, second-order rate constant for enzyme-catalyzed deuterium exchange ([2]; D2O, pD 6.45, 25 °C): 8.3 M⁻¹ s⁻¹
- kex, turnover number for deuterium exchange into enzyme-bound substrate ([2]; D2O, pD 7.03, 25 °C, fit to eq 5): 0.0169 s⁻¹
- kex/Kd, second-order rate constant for enzyme-catalyzed deuterium exchange ([2]; D2O, pD 7.03, 25 °C): 33 M⁻¹ s⁻¹
- kex, turnover number for deuterium exchange into enzyme-bound substrate ([2]; D2O, pD 7.37, 25 °C, fit to eq 5): 0.0242 s⁻¹
- kex/Kd, second-order rate constant for enzyme-catalyzed deuterium exchange ([2]; D2O, pD 7.37, 25 °C): 140 M⁻¹ s⁻¹
- kex, turnover number for deuterium exchange into enzyme-bound substrate ([2]; D2O, pD 7.64, 25 °C, fit to eq 5): 0.0324 s⁻¹
- kex/Kd, second-order rate constant for enzyme-catalyzed deuterium exchange ([2]; D2O, pD 7.64, 25 °C): 300 M⁻¹ s⁻¹
- kex for deuterium exchange ([2]; D2O, pD 8.15, 25 °C, I = 0.10 (NaCl), fit of kobsd/[E] to eq 4): 0.048 s⁻¹
- kex, turnover number for deuterium exchange into enzyme-bound substrate ([2]; D2O, pD 8.15, 25 °C, fit to eq 5): 0.0438 s⁻¹
- kex/Kd, second-order rate constant for enzyme-catalyzed deuterium exchange ([2]; D2O, pD 8.15, 25 °C): 400 M⁻¹ s⁻¹
- kex, turnover number for deuterium exchange into enzyme-bound substrate ([2]; D2O, pD 9.33, 25 °C, fit to eq 5): 0.0384 s⁻¹
- kex/Kd, second-order rate constant for enzyme-catalyzed deuterium exchange ([2]; D2O, pD 9.33, 25 °C): 200 M⁻¹ s⁻¹
- stabilization of the transition state for deuterium exchange by the 5-fluoro substituent ([2]; F-UMP vs UMP): 4.8 kcal/mol
- pKE, pKa of the essential residue at the free enzyme ([2]; Saccharomyces cerevisiae): 8.5 ± 0.2 ^d
- pKES, pKa of the essential residue (Lys-93) at the E•S complex ([2]; Saccharomyces cerevisiae): 7.1 ± 0.1 ^f
- free energy of binding to form the Michaelis complex [2]: 6.4 kcal/mol
- (Keq)enz, equilibrium constant for proton transfer from C-6 of bound nucleotide to ScOMPDC [2]: 4.1 × 10^−9
- Kd′/Kd, ratio of dissociation constants from protonated and deprotonated enzyme [2]: 25
- stabilization of enzyme-bound vinyl carbanion relative to bound nucleotide [2]: at least 13 kcal/mol
- (kex)max, intrinsic first-order rate constant (turnover number) for deuterium exchange into saturating substrate bound to the deprotonated enzyme [2]: 0.041 s⁻¹
- total enzymatic rate acceleration for deuterium exchange ([2]; ratio of (kex)max/Kd and ko for 5-fluorouridine at pH 7.1): 3e+10 M⁻¹
- Kd [8]: 140 µM
- (Keq)aq, equilibrium constant for proton transfer from C-6 to a primary amine base of pKRNH3 = 7 in water [3]: 8 × 10^−19

SMILES: O=C(O)c1cc(=O)[nH]c(=O)n1[C@@H]1O[C@H](COP(=O)(O)O)[C@@H](O)[C@H]1O [OMP, orotidine 5′-monophosphate]
- ko, nonenzymatic decarboxylation [9]: 2.8e-16 s⁻¹
- kcat for decarboxylation (ScOMPDC [10]): 15 s⁻¹
- pKa of the phosphoryl group [5]: 6.38

SMILES: O=c1ccn([C@@H]2O[C@H](CO)[C@@H](O)[C@H]2O)c(=O)[nH]1 [Uridine N-3 Anion, uridine N-3 anion]
- kDO, second-order rate constant for deuterioxide-ion-catalyzed deuterium exchange at C-6 [3]: 1.5e-08 M⁻¹ s⁻¹
- kHO, second-order rate constant for proton transfer from C-6 to hydroxide ion [3]: 6.3e-09 M⁻¹ s⁻¹

SMILES: O=c1[nH]c(=O)n([C@@H]2O[C@H](CO)[C@@H](O)[C@H]2O)cc1F [5-Fluorouridine, 5-fluorouridine]
- kDO, second-order rate constant for deuterioxide-ion-catalyzed deuterium exchange at C-6 [3]: 1.7 M⁻¹ s⁻¹
- kHO, second-order rate constant for proton transfer from C-6 to hydroxide ion [3]: 0.71 M⁻¹ s⁻¹
- ko = kHO[HO^−], observed rate constant for C-6 deprotonation by hydroxide ion ([3]; water, pH 7.1): 9e-08 s⁻¹
